Data taken from ChEMBL document CHEMBL5463729, “Data for DCP probe BAY 1753011” (2023).

How the values were obtained:
Conditions in all cases: Compound concentration 10.0 uM
[1] = target: Serine/threonine-protein kinase TAO2 (Homo sapiens) (UniProt Q9UL54); test: Inhibition of TAO2(h) at 10.0 µM in the Eurofins Kinase panel
[2] = target: Estrogen receptor (Homo sapiens) (UniProt P03372)
[3] = target: T1, Alpha-2C adrenergic receptor (Homo sapiens) (UniProt P18825)
T1 sequence (whole entry): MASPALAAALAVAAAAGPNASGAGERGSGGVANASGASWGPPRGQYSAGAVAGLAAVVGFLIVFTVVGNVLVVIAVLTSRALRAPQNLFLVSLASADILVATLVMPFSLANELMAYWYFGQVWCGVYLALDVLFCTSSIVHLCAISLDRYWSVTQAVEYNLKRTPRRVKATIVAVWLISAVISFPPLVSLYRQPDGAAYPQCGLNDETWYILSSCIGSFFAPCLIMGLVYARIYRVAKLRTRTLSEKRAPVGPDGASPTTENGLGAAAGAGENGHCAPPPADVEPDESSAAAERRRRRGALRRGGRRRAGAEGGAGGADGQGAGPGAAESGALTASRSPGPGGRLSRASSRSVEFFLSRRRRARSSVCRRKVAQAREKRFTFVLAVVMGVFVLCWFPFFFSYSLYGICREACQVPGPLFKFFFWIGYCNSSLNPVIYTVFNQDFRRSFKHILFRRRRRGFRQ

[4] = target: Ephrin type-A receptor 8 (Homo sapiens) (UniProt P29322); test: Inhibition of EphA8(h) at 10.0 µM in the Eurofins Kinase panel
[5] = target: Tyrosine-protein kinase FRK (Homo sapiens) (UniProt P42685); test: Inhibition of PTK5(h) at 10.0 µM in the Eurofins Kinase panel
[6] = target: Serine/threonine-protein kinase Nek7 (Homo sapiens) (UniProt Q8TDX7); test: Inhibition of NEK7(h) at 10.0 µM in the Eurofins Kinase panel
[7] = target: Testis-specific serine/threonine-protein kinase 1 (Homo sapiens) (UniProt Q9BXA7); test: Inhibition of TSSK1(h) at 10.0 µM in the Eurofins Kinase panel
[8] = target: Serine/threonine-protein kinase Nek3 (Homo sapiens) (UniProt P51956); test: Inhibition of NEK3(h) at 10.0 µM in the Eurofins Kinase panel
[9] = target: Adenosine receptor A1 (Homo sapiens) (UniProt P30542)
[10] = target: Dual specificity protein kinase CLK3 (Homo sapiens) (UniProt P49761); test: Inhibition of CLK3(h) at 10.0 µM in the Eurofins Kinase panel
[11] = target: Adenosine receptor A3 (Homo sapiens) (UniProt P0DMS8)
[12] = target: Serine/threonine-protein kinase DCLK2 (Homo sapiens) (UniProt Q8N568); test: Inhibition of DCAMKL2(h) at 10.0 µM in the Eurofins Kinase panel
[13] = target: Fibroblast growth factor receptor 1 (Homo sapiens) (UniProt P11362); test: Inhibition of FGFR1(h) at 10.0 µM in the Eurofins Kinase panel
[14] = target: Interferon-induced, double-stranded RNA-activated protein kinase (Homo sapiens) (UniProt P19525); test: Inhibition of PKR(h) at 10.0 µM in the Eurofins Kinase panel
[15] = target: Serine/threonine-protein kinase 17A (Homo sapiens) (UniProt Q9UEE5); test: Inhibition of DRAK1(h) at 10.0 µM in the Eurofins Kinase panel
[16] = target: Phosphatidylinositol 4-phosphate 5-kinase type-1 gamma (Homo sapiens) (UniProt O60331); test: Inhibition of PIP5K1g(h) at 10.0 µM in the Eurofins Kinase panel
[17] = target: 5-hydroxytryptamine receptor 2B (Homo sapiens) (UniProt P41595)
[18] = target: DNA-dependent protein kinase catalytic subunit (Homo sapiens) (UniProt P78527); test: Inhibition of DNA-PK(h) at 10.0 µM in the Eurofins Kinase panel
[19] = target: Leucine-rich repeat serine/threonine-protein kinase 2 (Homo sapiens) (UniProt Q5S007); test: Inhibition of LRRK2(h) at 10.0 µM in the Eurofins Kinase panel
[20] = target: Bone morphogenetic protein receptor type-2 (Homo sapiens) (UniProt Q13873); test: Inhibition of BMPR2(h) at 10.0 µM in the Eurofins Kinase panel
[21] = target: Casein kinase I isoform gamma-2 (Homo sapiens) (UniProt P78368); test: Inhibition of CK1gamma2(h) at 10.0 µM in the Eurofins Kinase panel
[22] = target: Platelet-derived growth factor receptor beta (Homo sapiens) (UniProt P09619); test: Inhibition of PDGFRbeta(h) at 10.0 µM in the Eurofins Kinase panel
[23] = target: D(2) dopamine receptor (Homo sapiens) (UniProt P14416)
[24] = target: Calcium/calmodulin-dependent protein kinase type II subunit beta (Homo sapiens) (UniProt Q13554); test: Inhibition of CaMKIIbeta(h) at 10.0 µM in the Eurofins Kinase panel
[25] = target: ALK tyrosine kinase receptor (Homo sapiens) (UniProt Q9UM73); test: Inhibition of ALK(h) at 10.0 µM in the Eurofins Kinase panel
[26] = target: Sodium-dependent noradrenaline transporter (Homo sapiens, UniProt P23975)
[27] = target: Ribosomal protein S6 kinase alpha-2 (Homo sapiens) (UniProt Q15349); test: Inhibition of Rsk3(h) at 10.0 µM in the Eurofins Kinase panel
[28] = target: Serine/threonine-protein kinase PLK3 (Homo sapiens) (UniProt Q9H4B4); test: Inhibition of Plk3(h) at 10.0 µM in the Eurofins Kinase panel
[29] = target: Beta-1 adrenergic receptor (Homo sapiens) (UniProt P08588)
[30] = target: GABA-A receptor; anion channel (Rattus norvegicus) (UniProt O09028+P15431+P18506+P18508+P19969+P20236+P23574+P23576+P28471+P28473+P30191+P62813+P63079+P63138+Q91ZM7+Q9ES14)
[31] = target: TGF-beta receptor type-2 (Homo sapiens) (UniProt P37173); test: Inhibition of TGFBR2(h) at 10.0 µM in the Eurofins Kinase panel
[32] = target: Cyclin-dependent kinase-like 4 (Homo sapiens) (UniProt Q5MAI5); test: Inhibition of CDKL4(h) at 10.0 µM in the Eurofins Kinase panel
[33] = target: Casein kinase 2 (Homo sapiens) (UniProt P67870+P68400+P19784+Q8NEV1); test: Inhibition of CK2(h) at 10.0 µM in the Eurofins Kinase panel; assay type: protein assay

D(2) dopamine receptor (Homo sapiens), sequence (P14416 whole entry): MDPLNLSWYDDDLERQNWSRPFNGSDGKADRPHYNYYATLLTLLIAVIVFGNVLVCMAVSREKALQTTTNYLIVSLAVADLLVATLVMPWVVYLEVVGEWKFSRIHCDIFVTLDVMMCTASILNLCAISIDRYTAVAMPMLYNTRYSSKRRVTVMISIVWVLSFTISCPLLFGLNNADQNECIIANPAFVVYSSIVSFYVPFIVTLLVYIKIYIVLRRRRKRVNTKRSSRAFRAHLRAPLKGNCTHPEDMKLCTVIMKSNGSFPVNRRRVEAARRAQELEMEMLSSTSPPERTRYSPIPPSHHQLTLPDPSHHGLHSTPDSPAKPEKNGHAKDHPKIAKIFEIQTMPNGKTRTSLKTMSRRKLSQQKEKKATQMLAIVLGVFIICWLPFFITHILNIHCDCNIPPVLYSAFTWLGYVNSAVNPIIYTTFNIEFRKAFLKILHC
Bone morphogenetic protein receptor type-2 (Homo sapiens), sequence (Q13873 whole entry, canonical isoform): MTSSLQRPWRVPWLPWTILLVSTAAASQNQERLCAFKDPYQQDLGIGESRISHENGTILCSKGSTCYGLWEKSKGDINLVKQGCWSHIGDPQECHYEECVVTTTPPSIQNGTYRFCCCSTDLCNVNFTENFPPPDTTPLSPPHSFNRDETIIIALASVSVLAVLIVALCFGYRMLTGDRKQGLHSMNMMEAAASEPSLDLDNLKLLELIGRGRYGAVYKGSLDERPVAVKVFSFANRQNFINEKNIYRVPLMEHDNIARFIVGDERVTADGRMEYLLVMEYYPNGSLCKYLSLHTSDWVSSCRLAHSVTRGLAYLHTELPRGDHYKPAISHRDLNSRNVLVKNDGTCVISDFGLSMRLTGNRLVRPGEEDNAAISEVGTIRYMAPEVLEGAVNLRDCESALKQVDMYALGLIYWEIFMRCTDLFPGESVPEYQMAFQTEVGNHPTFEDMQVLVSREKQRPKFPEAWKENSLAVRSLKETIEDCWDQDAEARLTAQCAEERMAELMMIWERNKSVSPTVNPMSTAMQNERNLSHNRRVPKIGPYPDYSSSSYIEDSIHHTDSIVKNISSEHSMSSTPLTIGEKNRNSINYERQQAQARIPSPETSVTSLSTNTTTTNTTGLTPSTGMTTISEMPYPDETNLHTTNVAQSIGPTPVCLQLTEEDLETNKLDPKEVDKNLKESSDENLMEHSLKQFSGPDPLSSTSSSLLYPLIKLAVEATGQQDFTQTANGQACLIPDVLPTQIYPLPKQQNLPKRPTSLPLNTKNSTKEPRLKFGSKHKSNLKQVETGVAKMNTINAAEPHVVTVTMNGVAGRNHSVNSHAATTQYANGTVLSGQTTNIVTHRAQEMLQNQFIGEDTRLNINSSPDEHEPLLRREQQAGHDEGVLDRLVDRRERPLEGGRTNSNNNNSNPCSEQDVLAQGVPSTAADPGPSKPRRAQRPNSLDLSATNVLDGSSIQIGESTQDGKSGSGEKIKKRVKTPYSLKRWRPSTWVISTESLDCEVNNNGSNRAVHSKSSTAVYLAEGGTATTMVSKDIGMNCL
Adenosine receptor A3 (Homo sapiens), sequence (P0DMS8 whole entry): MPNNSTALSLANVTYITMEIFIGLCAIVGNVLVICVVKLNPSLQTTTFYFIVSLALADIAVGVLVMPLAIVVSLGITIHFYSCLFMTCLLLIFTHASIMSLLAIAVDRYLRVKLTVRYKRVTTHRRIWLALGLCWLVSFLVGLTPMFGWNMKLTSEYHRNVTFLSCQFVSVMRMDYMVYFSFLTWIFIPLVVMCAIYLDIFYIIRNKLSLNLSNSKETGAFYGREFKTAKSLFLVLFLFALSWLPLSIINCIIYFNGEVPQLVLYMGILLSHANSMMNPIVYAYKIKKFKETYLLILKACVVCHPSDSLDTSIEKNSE
Beta-1 adrenergic receptor (Homo sapiens), sequence (P08588 whole entry, looked up): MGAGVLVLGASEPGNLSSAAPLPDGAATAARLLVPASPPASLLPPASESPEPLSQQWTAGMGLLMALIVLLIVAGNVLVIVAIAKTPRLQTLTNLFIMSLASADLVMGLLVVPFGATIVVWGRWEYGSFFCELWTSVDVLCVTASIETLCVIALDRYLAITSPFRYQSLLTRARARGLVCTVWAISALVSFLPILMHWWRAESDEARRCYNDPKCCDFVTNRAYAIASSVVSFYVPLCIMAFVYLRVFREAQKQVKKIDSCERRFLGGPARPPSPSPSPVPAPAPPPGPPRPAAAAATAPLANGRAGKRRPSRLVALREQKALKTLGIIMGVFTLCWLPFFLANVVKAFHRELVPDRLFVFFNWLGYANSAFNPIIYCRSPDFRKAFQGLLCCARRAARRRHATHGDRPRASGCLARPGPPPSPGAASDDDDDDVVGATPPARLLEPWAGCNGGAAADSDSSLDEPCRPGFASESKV
Ephrin type-A receptor 8 (Homo sapiens), sequence (P29322 whole entry): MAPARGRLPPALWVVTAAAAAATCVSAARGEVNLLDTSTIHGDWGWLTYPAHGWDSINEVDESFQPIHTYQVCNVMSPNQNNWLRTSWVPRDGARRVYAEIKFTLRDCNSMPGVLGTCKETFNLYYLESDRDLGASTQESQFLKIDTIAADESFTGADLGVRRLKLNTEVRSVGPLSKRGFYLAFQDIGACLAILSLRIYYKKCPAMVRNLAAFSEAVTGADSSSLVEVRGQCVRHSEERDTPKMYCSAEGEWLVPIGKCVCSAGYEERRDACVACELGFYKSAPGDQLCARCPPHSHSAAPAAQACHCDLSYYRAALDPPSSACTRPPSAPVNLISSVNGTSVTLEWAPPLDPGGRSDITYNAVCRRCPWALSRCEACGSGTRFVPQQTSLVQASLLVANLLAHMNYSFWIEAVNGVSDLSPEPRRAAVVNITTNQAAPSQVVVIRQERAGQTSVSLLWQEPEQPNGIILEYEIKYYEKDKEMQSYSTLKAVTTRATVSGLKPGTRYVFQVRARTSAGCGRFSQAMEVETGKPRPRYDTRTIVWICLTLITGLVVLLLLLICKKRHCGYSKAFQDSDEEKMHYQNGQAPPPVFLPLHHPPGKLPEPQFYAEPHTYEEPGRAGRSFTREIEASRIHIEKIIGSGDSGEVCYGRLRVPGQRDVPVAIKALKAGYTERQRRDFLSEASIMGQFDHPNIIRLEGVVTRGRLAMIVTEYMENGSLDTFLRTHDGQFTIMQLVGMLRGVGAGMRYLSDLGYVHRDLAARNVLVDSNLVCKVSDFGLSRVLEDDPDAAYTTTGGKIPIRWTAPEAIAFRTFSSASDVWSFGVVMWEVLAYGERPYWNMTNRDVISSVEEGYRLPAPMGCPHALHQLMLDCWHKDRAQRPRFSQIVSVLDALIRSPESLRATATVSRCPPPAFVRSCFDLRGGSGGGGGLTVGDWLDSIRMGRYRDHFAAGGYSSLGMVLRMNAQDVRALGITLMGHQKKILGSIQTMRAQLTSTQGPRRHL
Cyclin-dependent kinase-like 4 (Homo sapiens), sequence (Q5MAI5 whole entry): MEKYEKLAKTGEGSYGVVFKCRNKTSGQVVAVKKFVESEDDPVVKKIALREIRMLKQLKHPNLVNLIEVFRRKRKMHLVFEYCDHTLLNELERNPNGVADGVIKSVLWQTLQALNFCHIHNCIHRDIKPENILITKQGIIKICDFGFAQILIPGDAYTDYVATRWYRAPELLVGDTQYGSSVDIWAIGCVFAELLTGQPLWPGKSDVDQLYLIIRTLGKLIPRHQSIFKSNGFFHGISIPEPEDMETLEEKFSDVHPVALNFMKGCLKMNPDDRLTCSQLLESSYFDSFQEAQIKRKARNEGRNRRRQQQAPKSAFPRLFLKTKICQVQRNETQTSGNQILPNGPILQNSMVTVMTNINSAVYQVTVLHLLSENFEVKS
Interferon-induced, double-stranded RNA-activated protein kinase (Homo sapiens), sequence (P19525 whole entry): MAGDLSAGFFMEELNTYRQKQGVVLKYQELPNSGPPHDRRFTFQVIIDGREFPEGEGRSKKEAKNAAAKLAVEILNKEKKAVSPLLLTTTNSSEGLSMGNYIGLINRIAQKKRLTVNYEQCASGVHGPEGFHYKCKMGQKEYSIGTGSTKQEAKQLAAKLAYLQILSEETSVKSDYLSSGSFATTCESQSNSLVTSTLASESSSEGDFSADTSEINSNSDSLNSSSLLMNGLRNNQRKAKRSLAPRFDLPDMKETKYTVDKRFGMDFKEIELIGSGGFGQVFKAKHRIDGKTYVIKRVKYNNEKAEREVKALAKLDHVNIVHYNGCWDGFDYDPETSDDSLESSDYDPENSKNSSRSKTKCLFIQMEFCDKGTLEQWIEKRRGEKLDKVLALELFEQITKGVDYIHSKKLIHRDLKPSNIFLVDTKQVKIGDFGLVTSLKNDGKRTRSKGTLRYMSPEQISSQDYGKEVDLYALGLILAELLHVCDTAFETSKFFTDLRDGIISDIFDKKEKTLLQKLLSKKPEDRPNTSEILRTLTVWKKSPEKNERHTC
Estrogen receptor (Homo sapiens), sequence (P03372 whole entry): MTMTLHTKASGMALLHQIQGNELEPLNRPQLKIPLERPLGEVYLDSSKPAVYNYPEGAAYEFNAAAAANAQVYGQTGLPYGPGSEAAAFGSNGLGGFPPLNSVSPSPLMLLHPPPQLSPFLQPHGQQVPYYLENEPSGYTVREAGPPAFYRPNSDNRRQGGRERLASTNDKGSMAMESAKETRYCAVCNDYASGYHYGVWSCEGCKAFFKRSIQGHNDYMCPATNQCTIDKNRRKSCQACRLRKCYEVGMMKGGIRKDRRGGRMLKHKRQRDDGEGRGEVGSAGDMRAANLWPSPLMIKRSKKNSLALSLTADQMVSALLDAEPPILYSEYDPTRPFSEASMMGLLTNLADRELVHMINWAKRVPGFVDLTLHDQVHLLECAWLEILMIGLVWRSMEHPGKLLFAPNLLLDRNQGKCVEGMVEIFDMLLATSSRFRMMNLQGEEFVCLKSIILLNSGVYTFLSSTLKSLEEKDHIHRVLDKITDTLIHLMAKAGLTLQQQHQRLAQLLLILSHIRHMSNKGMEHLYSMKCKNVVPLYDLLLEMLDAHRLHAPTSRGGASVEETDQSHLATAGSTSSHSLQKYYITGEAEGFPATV

Compound | inhibition [1] [%] | inhibition [2] [%] | inhibition [3] [%] | inhibition [4] [%] | inhibition [5] [%] | inhibition [6] [%] | inhibition [7] [%] | inhibition [8] [%] | inhibition [9] [%] | inhibition [10] [%] | inhibition [11] [%] | inhibition [12] [%] | inhibition [13] [%] | inhibition [14] [%] | inhibition [15] [%] | inhibition [16] [%] | inhibition [17] [%] | inhibition [18] [%] | inhibition [19] [%] | inhibition [20] [%] | also measured
O=c1n(Cc2cncn2-c2cccc(Cl)c2)nc(-c2ccc(Cl)cc2)n1C[C@H](O)C(F)(F)F | -6.37 | 4 | -3 | 3.67 | 0.3 | 1.5 | 7.23 | 5.44 | 8 | 1.4 | 7 | -8.53 | -0.06 | -3.03 | -1.37 | -0.37 | 12 | -5.25 | 10.3 | 14.4 | inhibition [21]: -1.25%; inhibition [22]: -9.1%; inhibition [23]: -8.61%; inhibition [24]: -8.58%; inhibition [25]: -8.94%; inhibition [26]: 8%; inhibition [27]: -0.87%; inhibition [28]: -0.3%; inhibition [29]: 5%; inhibition [30]: 12%; inhibition [31]: 8.26%; inhibition [32]: -1.89%; inhibition [33]: -3.37%
C[C@H](O)c1nc(Cn2nc(-c3ccc(Cl)cc3)n(C[C@H](O)C(F)(F)F)c2=O)nn1-c1cccc(Cl)c1 [PECAVAPTAN] | -4.1 | 8 | 11 | 4.55 | 0.28 | 3.8 | -5.64 | 61 | 26 | -0.38 | 16 | -9.34 | 1.76 | 1.32 | -9.63 | -2.06 | 52 | -4.2 | 5.14 | 11.1 | inhibition [21]: 4.6%; inhibition [22]: -5.19%; inhibition [23]: -5.84%; inhibition [24]: -0.27%; inhibition [25]: -3.75%; inhibition [26]: 62%; inhibition [27]: 9.71%; inhibition [28]: 0.49%; inhibition [29]: 5%; inhibition [30]: 30%; inhibition [31]: 8.85%; inhibition [32]: 5.63%; inhibition [33]: 5.37%
